Publication PMC10856265, “Penisimplicins A and B: Novel Polyketide–Peptide Hybrid Alkaloids from the Fungus Penicillium simplicissimum JXCC5” (Molecules, 2024)

Legend:
[1] = target: acetylcholinesterase; conditions: cited from earlier work; for IC50: read-out: anti-acetylcholinesterase activity IC50
[2] = target: T1, Acetylcholinesterase (AChE) (Homo sapiens, UniProt P22303); assay: biochemical; conditions: Ellman method, pH 8.0, 37 °C, absorbance at 405 nm; read-out: acetylcholinesterase inhibitory activity IC50
T1 construct: purchased Sigma-Aldrich
Description: Acetylcholinesterase (AChE, Sigma-Aldrich, Saint Louis, MO, USA, 0.1 U/mL), acetylthiocholine iodide, dithiobisnitrobenzoic acid (DTNB), and tacrine were bought from Sigma-Aldrich.
The AChE inhibitory activity was evaluated based on the protocol developed by Ellman et al. [33]. The enzymatic reactions were conducted in 96-well microplates. The following were added to each well: 110 μL phosphate buffer (pH 8.0), 40 μL AChE, and the tested compounds (dissolved in 10 μL DMSO). The microplates were then incubated in 37 °C for 20 min. […] Then, the absorbance at 405 nm was detected after 1 h. Seven different concentrations and three replications per concentration for each compound were tested.

[3] = tested on: murine monocytic RAW264.7 macrophage cells; assay: Anti-inflammatory assay: NO production by the Griess method; type: cell-based; conditions: LPS (0.5 µg/mL)-stimulated RAW264.7 cells, NO content
Description: The content of NO was determined by the Griess method. Briefly, the murine monocytic RAW264.7 macrophage cells in logarithmic growth phase were diluted to 1 × 10^5 cells/mL. Then, 100 µL of cell dilution was seeded into the 96-well plates and incubated overnight at 37 °C in a humid atmosphere with 5% CO2 for 24 h. The test compound and lipopolysaccharides (LPS) (Sigma) (0.5 µg/mL) were then added to each well and incubated for another 18 h. Then, 50 µL of cells culture supernatant was taken, 50 µL of the Griess reagent (reagent A and reagent B, Sigma) was added in triplicate, and NO production was evaluated in each well. After 5 min of incubation, the absorbances of samples were measured at 570 nm with Envision multilabel plate reader, and the corresponding contents were calculated by curve calibration.

T1 sequence (P22303 32-614, species assumed): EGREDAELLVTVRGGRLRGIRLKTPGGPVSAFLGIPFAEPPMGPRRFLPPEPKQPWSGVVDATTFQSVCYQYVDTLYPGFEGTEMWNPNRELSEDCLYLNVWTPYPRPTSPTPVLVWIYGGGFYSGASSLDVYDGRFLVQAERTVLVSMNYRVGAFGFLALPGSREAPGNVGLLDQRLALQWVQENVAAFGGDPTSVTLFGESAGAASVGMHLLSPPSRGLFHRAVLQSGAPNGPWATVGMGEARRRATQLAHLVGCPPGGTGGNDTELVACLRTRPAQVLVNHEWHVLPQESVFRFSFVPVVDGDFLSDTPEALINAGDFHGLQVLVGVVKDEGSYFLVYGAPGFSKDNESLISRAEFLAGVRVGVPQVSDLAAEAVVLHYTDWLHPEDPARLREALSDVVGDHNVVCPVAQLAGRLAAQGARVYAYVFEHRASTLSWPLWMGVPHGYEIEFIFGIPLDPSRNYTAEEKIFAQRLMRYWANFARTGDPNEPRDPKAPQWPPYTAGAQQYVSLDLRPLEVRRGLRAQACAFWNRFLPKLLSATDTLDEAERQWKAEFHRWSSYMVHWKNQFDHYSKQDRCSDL

| SMILES | IC50 [1] | bioactivity in a panel of biological activity assays, including anti-inflammatory activity [3] | anti-acetylcholinesterase activity IC50 [1] | other results |
| --- | --- | --- | --- | --- |
| COC(C)(C)C(O)CCC(C)=CCOc1c2ccoc2cc2oc(=O)ccc12 (stereo not shown) [6′-hydroxy-7′-methoxybergamottin] | 13.2 µM |  |  |  |
| CCCCC[C@@H]1Cc2cc(O)c(C(=O)O)c(O)c2[C@@H](c2[nH]c3ccccc3c2CC(=O)OC)O1 [Compound 1, Penisimplicin A] |  | devoid of any bioactivities |  | IC50 [2]: 6.35 µM |
| CCCCCC(O)Cc1cc(O)c(C(=O)O)c(O)c1C1CCC2C(=O)NC(CC(C)C)C(=O)N21 (stereo not shown) [Compound 2, Penisimplicin B] |  | devoid of any bioactivities |  |  |
| C=C1CCC[C@@]2(C)C[C@@]3([C@@]45C[C@]6(C)CCCC(=C)[C@H]6CC4=C(C)C(=O)O5)OC(=O)C(C)=C3C[C@H]12 [biatractylolide] |  |  | 6.5458 µg/mL |  |
| COC1=CC(=O)c2c(O)c3c(c(-c4c(OC)cc5c(c4O)C(=O)c4c(O)cc(C)cc4C5=O)c2C1=O)C[C@@H](C)O[C@H]3C [floribundiquinone B] |  |  | 5.95 µg/mL |  |
| CC(C)=CCOc1c2ccoc2cc2oc(=O)ccc12 [isoimperatorin] | 23.1 µM |  |  |  |
